Assay results taken from ChEMBL document CHEMBL5512607, “Journey of Von Hippel-Lindau (VHL) E3 ligase in PROTACs design: From VHL ligands to VHL-based degraders” (Eur J Med Chem, 2024).
pEC50: −log10 of the molar value. Values belong to the compound of their own block, whether it stands above or below them.

Assays:
MOLT-4 [1] = test: Anticancer activity against human MOLT-4 cells assessed as reduction in cell viability incubated for 72 hrs by MTS assay; assay type: functional, cell-based; conditions: MOLT-4, 72 h
[2] = target: T1, von Hippel-Lindau disease tumor suppressor/Bcl-2-like protein 1 (Homo sapiens, UniProt Q07817+P40337); test: Protac activity at VHL/BCL-XL in human MOLT-4 cells assessed as induction of protein degradation by measuring maximal degradation relative to control; assay type: cell-based
Target sequence in this assay (P40337 whole entry, looked up): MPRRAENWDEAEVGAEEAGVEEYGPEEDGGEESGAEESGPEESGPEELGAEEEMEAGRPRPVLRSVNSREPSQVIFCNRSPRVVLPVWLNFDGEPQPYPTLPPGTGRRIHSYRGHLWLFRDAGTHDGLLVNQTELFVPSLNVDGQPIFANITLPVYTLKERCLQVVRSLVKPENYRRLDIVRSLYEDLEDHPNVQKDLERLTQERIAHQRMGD
Target sequence in this assay (Q07817 whole entry, looked up): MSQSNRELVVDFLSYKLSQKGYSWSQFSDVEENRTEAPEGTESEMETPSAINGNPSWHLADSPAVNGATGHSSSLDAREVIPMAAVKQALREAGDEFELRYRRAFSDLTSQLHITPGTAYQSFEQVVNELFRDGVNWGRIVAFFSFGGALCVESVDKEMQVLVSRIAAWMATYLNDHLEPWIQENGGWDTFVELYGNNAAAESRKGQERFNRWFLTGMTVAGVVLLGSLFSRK

[3] = target: T1, von Hippel-Lindau disease tumor suppressor/Bcl-2-like protein 1; test: PROTAC activity at VHL/BCL-XL in human MOLT-4 cells assessed as induction of BCL-XL degradation incubated for 16 hrs by immunoblot analysis; assay type: cell-based
Target sequence in this assay (Q07817 whole entry): as the sequence (Q07817 whole entry, looked up) above
Target sequence in this assay (P40337 whole entry): as the sequence (P40337 whole entry, looked up) above

MOLT-4 [4] = test: Antiproliferative activity against human MOLT-4 cells assessed as cell growth inhibition incubated for 72 hrs by Cell Titer-Glo Luminescent assay; assay type: functional, cell-based; conditions: MOLT-4, 72 h
[5] = target: T1, von Hippel-Lindau disease tumor suppressor/Bcl-2-like protein 1; test: PROTAC activity at VHL/BCL-XL in human THP-1 cells assessed as induction of BCL-XL degradation incubated for 16 hrs by immunoblot analysis; assay type: cell-based
Target sequence in this assay (Q07817 whole entry): as the sequence (Q07817 whole entry, looked up) above
Target sequence in this assay (P40337 whole entry): as the sequence (P40337 whole entry, looked up) above

[6] = target: T1, von Hippel-Lindau disease tumor suppressor/Bcl-2-like protein 1; test: PROTAC activity at VHL/BCL-XL in human THP-1 cells assessed as induction of protein degradation by measuring maximal degradation relative to control; assay type: cell-based
Target sequence in this assay (P40337 whole entry, looked up): as above
Target sequence in this assay (Q07817 whole entry, looked up): as the sequence (Q07817 whole entry, looked up) above

Bcl-2-like protein 1 = Bcl-2-like protein 1 (Homo sapiens, UniProt Q07817); test: Induction of Bcl-xl degradation in HEK293T cells incubated for 16 hrs by immunoblotting analysis; assay type: cell-based
Chain of Bcl-2-like protein 1 (Q07817 whole entry): as the sequence (Q07817 whole entry, looked up) above

[7] = target: Apoptosis regulator Bcl-2 (Homo sapiens, UniProt P10415); test: Induction of Bcl2 degradation in HEK293T cells incubated for 16 hrs by immunoblotting analysis; assay type: cell-based
Chain of Apoptosis regulator Bcl-2 (P10415 whole entry): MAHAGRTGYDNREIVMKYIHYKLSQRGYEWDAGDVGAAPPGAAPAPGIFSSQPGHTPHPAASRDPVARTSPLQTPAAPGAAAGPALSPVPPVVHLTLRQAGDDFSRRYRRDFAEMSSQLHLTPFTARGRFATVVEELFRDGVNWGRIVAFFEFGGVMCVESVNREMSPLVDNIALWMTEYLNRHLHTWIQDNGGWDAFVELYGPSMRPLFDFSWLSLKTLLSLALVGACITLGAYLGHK

[8] = target: T2, von Hippel-Lindau disease tumor suppressor/Epidermal growth factor receptor (Homo sapiens, UniProt P00533+P40337); test: PROTAC activity at VHL/EGFR del19 mutant in human NCI-H3255 cells assessed as protein degradation incubated for 24 hrs by immunoblot analysis; assay type: cell-based
T2 sequence (P00533 whole entry, looked up, stated change not applied): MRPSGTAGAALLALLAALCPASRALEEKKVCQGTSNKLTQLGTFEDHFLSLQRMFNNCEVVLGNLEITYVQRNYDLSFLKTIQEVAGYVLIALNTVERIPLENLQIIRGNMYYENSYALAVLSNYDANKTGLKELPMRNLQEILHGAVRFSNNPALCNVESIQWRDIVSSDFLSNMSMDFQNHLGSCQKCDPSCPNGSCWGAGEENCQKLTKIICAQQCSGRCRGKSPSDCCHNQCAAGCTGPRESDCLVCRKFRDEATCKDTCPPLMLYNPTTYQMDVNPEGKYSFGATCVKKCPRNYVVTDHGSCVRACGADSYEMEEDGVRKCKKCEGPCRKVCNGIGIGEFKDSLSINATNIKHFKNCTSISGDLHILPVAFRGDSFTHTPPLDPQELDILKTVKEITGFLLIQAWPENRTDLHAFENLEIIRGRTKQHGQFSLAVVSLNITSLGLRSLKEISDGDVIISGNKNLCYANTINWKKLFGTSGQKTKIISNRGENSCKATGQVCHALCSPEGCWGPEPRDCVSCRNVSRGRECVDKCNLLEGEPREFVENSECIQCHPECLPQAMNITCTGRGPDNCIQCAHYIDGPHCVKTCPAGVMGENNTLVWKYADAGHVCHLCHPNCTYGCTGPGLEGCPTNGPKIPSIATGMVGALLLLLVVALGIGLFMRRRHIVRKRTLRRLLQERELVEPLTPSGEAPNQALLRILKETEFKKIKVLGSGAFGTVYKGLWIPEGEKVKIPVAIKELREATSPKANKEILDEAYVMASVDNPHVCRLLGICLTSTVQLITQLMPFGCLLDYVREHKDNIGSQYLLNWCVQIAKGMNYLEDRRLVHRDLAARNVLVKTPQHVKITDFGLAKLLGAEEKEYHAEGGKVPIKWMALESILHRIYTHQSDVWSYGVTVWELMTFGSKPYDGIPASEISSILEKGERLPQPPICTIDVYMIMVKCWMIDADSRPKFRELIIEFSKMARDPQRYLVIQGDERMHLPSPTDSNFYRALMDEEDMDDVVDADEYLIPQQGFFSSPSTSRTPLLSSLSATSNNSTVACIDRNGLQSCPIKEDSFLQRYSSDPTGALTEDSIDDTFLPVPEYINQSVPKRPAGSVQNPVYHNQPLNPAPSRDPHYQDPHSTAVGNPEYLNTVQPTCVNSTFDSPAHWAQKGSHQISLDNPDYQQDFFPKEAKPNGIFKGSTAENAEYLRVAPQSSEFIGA
T2 sequence (P40337 whole entry, looked up, stated change not applied): as the sequence (P40337 whole entry, looked up) above

[9] = system: von Hippel-Lindau disease tumor suppressor/Epidermal growth factor receptor (Homo sapiens), P00533+P40337 [UNDEFINED MUTATION]; test: PROTAC activity at VHL/EGFR del19 mutant in human NCI-H3255 cells assessed as maximal degradation incubated for 24 hrs by immunoblot analysis relative to control; assay type: cell-based
Chain of von Hippel-Lindau disease tumor suppressor/Epidermal growth factor receptor (Homo sapiens), P00533+P40337 [UNDEFINED MUTATION] (P00533 whole entry, looked up, stated change not applied): as the sequence (P00533 whole entry, looked up, stated change not applied) above
Chain of von Hippel-Lindau disease tumor suppressor/Epidermal growth factor receptor (Homo sapiens), P00533+P40337 [UNDEFINED MUTATION] (P40337 whole entry, looked up, stated change not applied): as the sequence (P40337 whole entry, looked up) above

[10] = target: T2, von Hippel-Lindau disease tumor suppressor/Epidermal growth factor receptor; test: PROTAC activity at VHL/EGFR del19 mutant in human HCC827 cells assessed as protein degradation incubated for 24 hrs by immunoblot analysis; assay type: cell-based
[11] = system: von Hippel-Lindau disease tumor suppressor/Epidermal growth factor receptor (Homo sapiens), P00533+P40337 [UNDEFINED MUTATION]; test: PROTAC activity at VHL/EGFR del19 mutant in human HCC827 cells assessed as maximal degradation incubated for 24 hrs by immunoblot analysis relative to control; assay type: cell-based

- pEC50 (MOLT-4 [1]): 7.28
- Emax [2]: 90.8%
- DC50 [3]: 0.053 µM
SMILES: Cc1ncsc1-c1ccc([C@H](C)NC(=O)[C@H]2C[C@H](O)CN2C(=O)[C@@H](NC(=O)CCCCCC(=O)N2CCN(CC[C@H](CSc3ccccc3)Nc3ccc(S(=O)(=O)NC(=O)c4ccc(N5CCN(CC6=C(c7ccc(Cl)cc7)CCC(C)(C)C6)CC5)cc4)cc3S(=O)(=O)C(F)(F)F)CC2)C(C)(C)C)cc1

- pEC50 (MOLT-4 [4]): 6.24
- DC50 [5]: 0.0048 µM
- Emax [6]: 76%
SMILES: Cc1ncsc1-c1ccc(CNC(=O)[C@@H]2C[C@@H](O)CN2C(=O)[C@H](NC(=O)CCOCCOCCOCCOCCOCCOCC#Cc2ccc(OCCCc3sc(N4CCc5cccc(C(=O)Nc6nc7ccccc7s6)c5C4)nc3C(=O)O)cc2)C(C)(C)C)cc1

- DC50 (Bcl-2-like protein 1): 0.006 µM
- DC50 [7]: 0.048 µM
SMILES: Cc1ncsc1-c1ccc([C@H](C)NC(=O)[C@@H]2C[C@@H](O)CN2C(=O)[C@H](NC(=O)CCCCCCC(=O)N2CCN(C[C@]3(C)CCC(c4ccc(Cl)cc4)=C(CN4CCN(c5ccc(C(=O)NS(=O)(=O)c6ccc(N[C@H](CCN7CCOCC7)CSc7ccccc7)c(S(=O)(=O)C(F)(F)F)c6)cc5)CC4)C3)CC2)C(C)(C)C)cc1

SMILES: COc1cc2ncnc(Nc3ccc(F)c(Cl)c3)c2cc1OCCCCCOCCOCCC(=O)N[C@@H](C(=O)N1C[C@@H](O)C[C@@H]1C(=O)NCc1ccc(-c2scnc2C)cc1)C(C)(C)C
- DC50 [8]: 0.0223 µM
- Emax [9]: 96.6%
- DC50 [10]: 0.0117 µM
- Emax [11]: 98.9%
